US9220682B2, “Nanocarrier therapy for treating invasive tumors” (Emory University, priority 2009, dated 2015)
“Also recorded” adds a separate entry of the source.

Columns and labels:
RT2 glioma cells = assay: Actin staining of IB-treated glioma cells; type: cell-based, rat; details: 24 hours, versus ethanol
Method: FIGS. 9A and 9B are photomicrographs showing the results of in vitro treatment of RT2 glioma cells with IB. Cells were treated with ethanol […] or IB […] and stained for actin (red) and nuclei (blue).
The ability of IB to impact invasion capability of glioma cells was tested further in vitro. Cells were treated for 24 hours with either IB dissolved in ethanol or an equivalent volume of ethanol.

[1] = Pharmacokinetics of free versus liposomal IB (Example 3); type: in vivo; details: rat, tail vein, 20 mg/kg, Cremaphor formulation
Method: FIG. 5 is a chart showing the pharmacokinetics of free versus encapsulated imipramine blue, in terms of plasma concentration (mg/ml) over time (hours).
Animals were injected via tail vein with 20 mg/kg liposomal or free IB. Orbital blood draws were performed at intervals and blood collected, centrifuged, and serum read at 610 nm absorbance for pharmacokinetics. […] For biodistribution, animals were perfused with saline, organs collected, homogenized, and drug extracted with DMSO and read at 610 nm absorbance.
The circulation time of the free imipramine blue was tested in a Cremaphor formulation similar to that of paclitaxel.

HIF2a = details: WM35 PKB cells, 5 micromolar, 24 hours; cited from earlier work
astrocytes = assay: Viability against astrocyte cultures using CCK8; type: cell-based; details: CCK8, 5 μg/ml
Method: (§1) FIG. 1a is a bar graph showing the effects of IB on cell growth in vitro, in terms of normalized cell viability.
(§2) An aggressive rat astrocytoma cell line, RT2, was maintained in vitro. This cell line was used to test 24 compounds at varying concentrations in cytotoxicity and proliferation assays using CCK8 (Dojindo), a tetrazolium salt based assay. Compounds without detrimental effects on viability and growth were tested using the Boyden chamber invasion assay at 48 hours. Compounds were also tested for viability against astrocyte cultures using CCK8. Of these compounds, several were identified as anti-invasive. However, several compounds were toxic to astrocytes in culture and several were cytotoxic and not in fact anti-invasive.

glioma cells = assay: Invasion assay at 24 hours, encapsulated versus free drug; type: cell-based
Method: FIG. 4 is a chart showing the results of an invasion assay at 24 hours, showing invasion (%) over time (24 hours).
An invasion assay was performed at 24 hours. The encapsulated formulation was compared to tree drug in vitro and was still active as an anti-invasive agent. Encapsulation of the compound in liposomes is reproducible and consistent between batched.

[2] = tested on: RT2 rat astrocytoma cell line; assay: Boyden chamber invasion assay at 48 hours; type: cell-based; details: RT2 cells, 0.01-5 μg/ml
Method: FIG. 1b is a bar graph showing the dose dependent effects of IB on invasion using a Boyden Chamber Assay. […] At concentrations above 20 μg/ml, IB was cytotoxic to cancer, and not just anti-invasive.
as §2
It also is benign to astrocyte co-culture making it safer for delivery to the brain (FIG. 3a). The compound is blue in color with an absorbance at 610 nm making it easily assayable. […] At concentrations above 20 μg/ml, IB was cytotoxic to cancer and not just anti-invasive.

[3] = Plasma clearance of free IB versus Nano-IB (Example 6); type: in vivo, rat; details: non tumor-bearing adult male rats, tail vein, readings over 1 hour
Method: Imipramine Blue liposomes were injected via the tail vein into adult male rats (non tumor-bearing). Blood samples were taken via the orbital cavity at different time points after drug administration, plasma separated and analyzed for IB content via absorbance readings on spectrophotometer.

[4] = tested on: RT2 rat astrocytoma cell line; assay: Cytotoxicity and proliferation assays using CCK8; type: cell-based
Method: as §1, §2

## CCN(CC)c1ccc(C(c2ccc(N(CC)CC)cc2)=c2ccc3c(c2)CCc2ccccc2[N+]=3CCCN(C)C)cc1 [IB, Imipramine Blue]
RT2 glioma cells
  effect on cytoskeleton: alters the arrangement of the cytoskeleton
[1]
  half-life of free IB: 11 min
[1]; listed as free imipramine blue
  half-life of free IB: around 11 minutes
HIF2a
  inhibition of HIF2a expression: around 90%
astrocytes
  effect on astrocyte culture: benign
Glioma cells
  invasion relative to control (100 percent): around 60%
[2]
  anti-invasive effect: highest anti-invasive properties; also recorded: dose-dependent anti-invasive response
[3]
  half-life of free IB: 12 min
[4]
  concentration at which IB is cytotoxic to cancer: above 20 μg/ml
[4]; CCK8
  proliferation of RT2 cells: not antiproliferative; also recorded: not particularly cytotoxic or anti-proliferative
[4]; CCK8, at anti-invasive concentrations
  cytotoxicity to RT2 cells: not particularly cytotoxic
